Results as given in EP0002933A1, “Method for assessing cancerous malignancy or benignity and diagnostic pack for use therein” (Gosalvez, Mario Gosalvez, priority 1977, dated 1979).

Experiments:
[1] = test system: pyruvate kinase; test: ATP inhibition of pyruvate kinase in cell homogenates (compound optical assay, NADH at 340 mµ); format: biochemical
Text: (§1) In more detail, the theoretical basis of this new method is as follows. -The step-wise degradation of glucose to pyruvic acid, according to the well-known Embden-Myerhof pathway, includes the reaction: [drawing 3] wherein ADP and ATP are, respectively, adenosine diphosphate and adenosine triphosphate. In healthy cells this reaction is suppressed by ATP inhibition of the enzyme pyruvate kinase. I have discovered, as previously noted, that in cancerous cells the reaction proceeds in greater or less degree, correlative to the degree of malignancy, in proportion to the extent to which ATP fails to inhibit pyruvate kinase activity. A preferred assay, therefore, involves assessment of the progress of the foregoing reaction in the presence of various levels of ATP calculated to reveal the extent, if any, by which sample-derived pyruvate kinase activity is inhibited by ATP. The extent of such inhibition can be characterised on a percentage scale relative to the foregoing reaction, taking 0% as no inhibition, 100% as total inhibition, and "maximum percent inhibition of pyruvate kinase activity" as that point on the scale beyond which addition of further ATP essentially fails to affect further the progress of the reaction.
(§2) An especially preferred method of following the reaction spectrophotometrically involves compound optical assay, in which the influence of the reaction under study on a secondary reaction with an observable end product is followed. See Felu, FEBS Letters 50, 334 (1975) and Bucher, T. et al., in : Methods in Enzymology, Vol. I (S.P. Colowick and N.O. Kaplan, eds.) Academic Press, N.Y. p. 435. Thus, in the compound reaction: [drawing 4] pyruvate kinase activity can be monitored by observing the rate of disappearance of the band (at 340 m µ) of the hydrogen donor NADH (nicotinamide adenine dinucleotide, reduced form). Successive repetitions of the assay with differing amounts of added ATP establish the point beyond which ATP addition fails to influence the rate of disappearance of the hydrogen donor.
Samples for assay may be obtained as whole tissue (e.g., of volume 1-10 mm^3) in the case of suspected tumours, by intraoperatorybiopsy or needle biopsy. In the case of suspected blood malignancies, the collection of white blood cells by differential centrifugation is sufficient. Samples are preserved on ice pending the preparation of homogenates suitable for assay. Homogenisation frees cell-contained pyruvate kinase for assay and involves cell disruption by conventional techniques which avoid, to a useful degree, the destruction of nuclei, mitochondria and other cell particulates. Typically, the sample may be placed in a hand homogeniser which is supplied with the assay kit, in buffered isotonic solution, and homogenised with several strokes of a pestle. From, e.g., 0.1 to 1 ml of buffered solution, depending on the size of the sample, is preferably employed. As one of many appropriate buffers may be mentioned a solution comprising 50 mM Tris-HC1, pH 7.0, 0.1 mM EDTA and 0.5 mM dithioerythritol. In the preferred embodiment of the invention the homogenate is next centrifuged, for example at about 5,000-10,000 rpm in a conical centrifuge tube for 10 minutes, and the supernatant is dialysed against water (e.g., for 2 hours at about 2-4°C.). The contents of the dialysis bag are then transferred to a tube immersed in ice. In the case of large samples, the centrifugation and dialysis steps may be omitted, as will be appreciated by the art-skilled. Preferably, however, a dialysis bag is supplied with the kit. As used herein, the term "homogenate" refers to a free enzyme-containing product of homogenisation, whether or not accompanied by other cellular debris. […]

[2] = test system: pyruvate kinase; test: as above; format: biochemical, Mouse
Text: as §1, §2
Samples for assay may be obtained as whole tissue (e.g., of volume 1-10 mm^3) in the case of suspected tumours, by intraoperatorybiopsy or needle biopsy. In the case of suspected blood malignancies, the collection of white blood cells by differential centrifugation is sufficient. Samples are preserved on ice pending the preparation of homogenates suitable for assay. Homogenisation frees cell-contained pyruvate kinase for assay and involves cell disruption by conventional techniques which avoid, to a useful degree, the destruction of nuclei, mitochondria and other cell particulates. Typically, the sample may be placed in a hand homogeniser which is supplied with the assay kit, in buffered isotonic solution, and homogenised with several strokes of a pestle. […]

SMILES: Nc1ncnc2c1ncn2[C@@H]1O[C@H](COP(=O)(O)OP(=O)(O)OP(=O)(O)O)[C@@H](O)[C@H]1O [ATP, adenosine triphosphate]
- MAXIMUM % INHIBITION OF PYRUVATE KINASE BY ATP ([1]; Acute lympho-blastic leukaemia, Human, Moderately malign): 32%
- MAXIMUM % INHIBITION OF PYRUVATE KINASE BY ATP ([1]; Cerebral ependonoma, Human, Benign): 40%
- MAXIMUM % INHIBITION OF PYRUVATE KINASE BY ATP ([1]; Glioma, Human, Malign): 15%
- MAXIMUM % INHIBITION OF PYRUVATE KINASE BY ATP ([1]; Mammary carcinoma, Human, Malign): 17%
- MAXIMUM % INHIBITION OF PYRUVATE KINASE BY ATP ([1]; Mammary fibro-adenoma, Rat, Very benign): 49%
- MAXIMUM % INHIBITION OF PYRUVATE KINASE BY ATP ([1]; Multiform glioma, Human, Very malign): 4%
- MAXIMUM % INHIBITION OF PYRUVATE KINASE BY ATP ([1]; Normal liver, Human, No cell growth): 99%
- MAXIMUM % INHIBITION OF PYRUVATE KINASE BY ATP ([1]; Normal tissue, Rat, No cell growth): 99%
- MAXIMUM % INHIBITION OF PYRUVATE KINASE BY ATP ([1]; Ovarian carcinoma, Human, Malign): 10%
- MAXIMUM % INHIBITION OF PYRUVATE KINASE BY ATP ([1]; Walter Carcino-sarcoma, Rat, Malign): 22%
- MAXIMUM % INHIBITION OF PYRUVATE KINASE BY ATP ([2]; Erhlich ascites (Paris strain), Mouse, Very high growth rate): 4%
- MAXIMUM % INHIBITION OF PYRUVATE KINASE BY ATP ([2]; Erhlich ascites tumour (Rome Strain), Mouse, Slow growth rate): 39%
- MAXIMUM % INHIBITION OF PYRUVATE KINASE BY ATP ([2]; Leukaemia 1210, Mouse, Very malign): 16%
- MAXIMUM % INHIBITION OF PYRUVATE KINASE BY ATP ([2]; Leukaemia P-P388, Mouse, Malign): 25%
